In PubChem BioAssay AID652269 (Broad Institute, 2013):
Values joined by “and” are separate entries in the source; they are usually repeats but may differ in a detail not shown here. Equal values may be shown once. Active and inactive are the calls of the source.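 How the source made its calls: active means median TrxR activity remaining at the top dose below 80%; inactive means the rest.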

target: Thioredoxin reductase 1, cytoplasmic (Rattus norvegicus) (UniProt O89049); experiment: Trx/TrxR/NADPH system inhibitors, dose response, counter-screen for PDI inhibitor project, biochemical, rat TrxR1, insulin turbidity, dry powder (AID 652269); settings: Trx/TrxR/NADPH insulin reduction, turbidity OD650

outcome | Structure (SMILES)
inactive | O=C(Nc1ccccc1)C1(CCOc2ccccc2)CCN(Cc2ccc(O)c(Cl)c2)CC1

same assay, conditions: Trx/TrxR/NADPH insulin reduction, turbidity OD650; at 33.3 µM

TrxR activity remaining % (stronger effect = lower value) | Structure (SMILES)
97% (inactive) | C/C1=C\C[C@H](OC(=O)c2ccc(O)cc2)/C(C)=C/[C@@H](O)C(C)(C)CCC1
100% (inactive) | CC(C)OC(=O)C1(CCOc2ccccc2)CCN(Cc2ccc(O)c(Cl)c2)CC1
100% (inactive) | O=C(NC1CCCC1)C1(CCOc2ccccc2)CCN(Cc2ccc(O)c(Cl)c2)CC1
100% (inactive) | CCOC(=O)c1c(CN2CCN(CCO)CC2)n(-c2ccccc2)c2cc(Br)c(O)cc12
100% (inactive) | CCOC(=O)C1(CCOc2ccccc2)CCN(Cc2ccc(OC)c(Cl)c2)CC1
100% (inactive) | CC(C)(C)OC(=O)C1(CCOc2ccccc2)CCN(Cc2ccc(O)c(Cl)c2)CC1
100% (inactive) | CCOC(=O)C1(CCOc2ccccc2)CCN(C(=O)c2ccc(O)c(Cl)c2)CC1
100% (inactive) | CCOC(=O)C1(CCOc2ccccc2)CCN(Cc2ccc(O)cc2)CC1
100% (inactive) and 94% (inactive) | CCOC(=O)C1(CCOc2ccccc2)CCN(Cc2ccc(O)c(Cl)c2)CC1
